Data published in ChEMBL document CHEMBL1201862, “PubChem BioAssay data set” (2004).
Calls of active or inactive are those of the source. No stated cut-off is given here; in the data, active = IC50 of 20 µM or less and inactive = more.

Target: T1, Hexokinase HKDC1 (Homo sapiens, UniProt Q2TB90)
T1 sequence (Q2TB90 whole entry): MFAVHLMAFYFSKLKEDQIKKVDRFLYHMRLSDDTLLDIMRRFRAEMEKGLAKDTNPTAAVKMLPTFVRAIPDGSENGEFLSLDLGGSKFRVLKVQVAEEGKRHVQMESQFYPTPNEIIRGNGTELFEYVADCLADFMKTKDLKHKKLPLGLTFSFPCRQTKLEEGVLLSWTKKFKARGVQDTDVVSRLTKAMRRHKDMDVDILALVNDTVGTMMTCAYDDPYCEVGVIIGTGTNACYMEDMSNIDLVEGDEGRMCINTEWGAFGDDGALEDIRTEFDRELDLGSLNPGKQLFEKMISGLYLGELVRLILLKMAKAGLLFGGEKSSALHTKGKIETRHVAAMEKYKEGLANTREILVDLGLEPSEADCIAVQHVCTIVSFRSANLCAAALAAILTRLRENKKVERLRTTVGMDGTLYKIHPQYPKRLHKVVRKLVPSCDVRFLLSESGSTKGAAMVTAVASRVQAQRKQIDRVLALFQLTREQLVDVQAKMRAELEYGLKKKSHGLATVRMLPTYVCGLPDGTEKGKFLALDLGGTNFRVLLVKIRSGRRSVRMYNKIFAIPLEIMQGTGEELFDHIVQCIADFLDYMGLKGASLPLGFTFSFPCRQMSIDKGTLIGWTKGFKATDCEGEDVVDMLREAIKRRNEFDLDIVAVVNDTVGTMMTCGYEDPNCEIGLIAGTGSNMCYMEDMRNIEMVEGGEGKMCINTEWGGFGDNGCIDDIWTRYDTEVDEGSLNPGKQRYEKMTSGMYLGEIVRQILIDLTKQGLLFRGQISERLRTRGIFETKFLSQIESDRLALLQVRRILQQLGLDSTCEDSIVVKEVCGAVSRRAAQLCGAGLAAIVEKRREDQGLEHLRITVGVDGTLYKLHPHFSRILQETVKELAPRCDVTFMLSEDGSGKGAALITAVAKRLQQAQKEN
Assay: SAR analysis of small molecule inhibitors of hexokinase domain containing I (HKDC1). [Related pubchem assays (depositor defined):AID493160, AID493190]
Format: functional

## O=C(O)CSc1cc(NS(=O)(=O)c2ccc(Cl)cc2)c2ccccc2c1O
  IC50: 8.9 µM (active)
